Converted amounts (≈) assume the structure as drawn.
Assays:
E. coli = experiment: MIC, two-fold serial dilution, E. coli; type: cell-based; conditions: Escherichia coli; read-out: Minimum Inhibitory Concentration (MIC), E. coli
Protocol: (§1) Table 2, using the reference drug ciprofloxacin, was presented with the MICs (minimal inhibitory concentrations) of these compounds against tested bacteria. […] The nature of aromatic substitution in the oxadiazole moiety tends to be correlated with higher antibacterial effects and the activity increased with (Ar) in the order of 2-pyridyl ≥ 3-pyridyl > 4-pyridyl > 2-Cl-Ph > 2-naphthyl.
(§2) On 96-well microtiter plates and […] of fresh bacterial culture of a single McFarland unit overnight, a double serial dilution of each compound […] in sterile standard saline was prepared for every single source well. Ciprofloxacin antibiotic (5 mg/mL^−1) and normal saline were included as standard references in each assay (see Appendix A).
(§3) In 96-well microtiter plates and […] of fresh bacterial culture of a single McFarland unit overnight, a double serial dilution of each compound […] in sterile standard saline was prepared for every single source well. Ciprofloxacin antibiotic (5 mg/mL^−1) and normal saline were included as standard reference in each assay. The plates were incubated at 37 °C overnight. As an indicator of bacterial growth, […] of p-iodonitrotetrazolium violet (INT) was added to each well and incubated at 37 °C for 30 min. […] The colorless tetrazolidium salt acts as an electron accepter and is reduced to a red colored formazan product by biological activity organisms. Where bacterial growth was inhibited, the solution in the well remained clear after incubation with INT.

B. subtilis = experiment: MIC, two-fold serial dilution, B. subtilis; type: cell-based; conditions: Bacillus subtilis; read-out: Minimum Inhibitory Concentration (MIC), B. subtilis
Protocol: as §1, §2, §3

P. aeruginosa = experiment: MIC, two-fold serial dilution, P. aeruginosa; type: cell-based; conditions: Pseudomonas aeruginosa; read-out: Minimum Inhibitory Concentration (MIC), P. aeruginosa
Protocol: as §1, §2, §3

S. aureus = experiment: MIC, two-fold serial dilution, S. aureus; type: cell-based, Staphylococcus aureus; conditions: for MIC: Staphylococcus aureus, read-out: Minimum Inhibitory Concentration (MIC), S. aureus
Protocol: as §1, §2, §3

[1] = Cell viability assay (MTT); type: cell-based; set-up: dose or concentration left out as unconfirmed; conditions: human, MCF-10A mammary gland epithelial cells, four days
Protocol: A human mammary gland epithelial cell line (MCF-10A) was used to conduct a cell viability assay. Compounds 2–6 were incubated with MCF-10A cells for four days, and the viability of the cells was determined using the 3-(4,5-dimethylthiazol-2-yl)-2,5-diphenyltetrazolium bromide (MTT) assay. All compounds had no cytotoxic effects, and the viability of the cells was greater than 85% for most of the compounds examined […], as shown in Table 4.
MTT Assay was performed to investigate the effect of compounds 2–6 on the viability of mammary epithelial cells (MCF-10A) (see Appendix A).

[2] = tested on: Staphylococcus aureus (ATCC 12600); experiment: Kirby-Bauer disc diffusion, S. aureus; type: cell-based; conditions: % of ciprofloxacin
Protocol: An updated Kirby-Bauer disc diffusion method was used to assess the antimicrobial activity of the tested samples [32, 33, 34, 35]. Using ciprofloxacin as a reference drug, synthetic compounds 1–21 were tested in vitro for antibacterial activity against S. aureus and B. subtilis as Gram-positive strains and E. coli and P. aeruginosa as Gram-negative strains. […]. […].
The cultures used were collected from the Cairo University’s Microanalytical Centre, Faculty of Science. An updated Kirby-Bauer disc diffusion method was applied for antimicrobial activities of the tests 1–21 compounds [32, 33, 34, 35]. See Appendix A.
The cultures used were collected from the Cairo University’s Microanalytical Centre, Faculty of Science. An updated Kirby-Bauer disc diffusion method was applied for the antimicrobial activities of the tests for compounds 1–21 [28]. Shortly after, 10 mL of fresh medium was grown to 100 μL bacteria/food until a count of 10^8 cells/mL or 10^5 cells/mL was achieved. One hundred μL microbial suspension was spread over agar plates that suited the broth in which it was held. The selected colonies of each organism that may play a pathogenic function should be from the primary agar plates and tested by the disc diffusion method for susceptibility. Plates inoculated with filamentous fungi as Aspergillus flavus were incubated at 25 °C for 48 h; Gram positive bacteria as Staphylococcus aureus (ATCC 12600, Microanalytical center, Cairo, Egypt), Bacillus subtilis (ATCC 6051); Gram negative bacteria as Escherichia coli (ATCC 11775), Pseudomonas aeuroginosa (ATCC 10145) were incubated at 35–37 °C for 24–48 h and yeast as Candida albicans (ATCC 7102) was incubated at 30 °C for 24–48 h and, then the diameters of the inhibition zones were measured in millimeters. Standard discs of ciprofloxacin (antibacterial agent), fluconazole (antifungal agent) served as positive controls for antimicrobial activity, but filter discs impregnated with 10 µL of solvent (distilled water, chloroform, DMSO) were used as a negative control. Blank paper disks (Schleicher and Schuell, Cytiva, Spain) with a diameter of 8.0 mm were impregnated with 10 µL of tested concentration of the stock solutions. When a filter paper disc impregnated with a tested chemical is placed on agar, the chemical will diffuse from the disc into the agar. This diffusion will place the chemical in the agar only around the disc. The solubility of the chemical and its molecular size will determine the size of the area of chemical infiltration around the disc. […] For the disc diffusion, the zone diameters were measured with slipping calipers of the National Committee for Clinical Laboratory Standards, and the results are given in Table 1. […]

E. coli DNA gyrase = molecular target: T1, E. coli DNA gyrase (Escherichia coli, UniProt P0AES4+P0AES6); experiment: E. coli DNA gyrase assay; type: biochemical
T1 construct: purchased Inspiralis
Protocol: (§4) IC50 assay determination was carried out in accordance with the procedures previously stated (see Appendix A).
(§5) Inhibitory activities were determined in an assay from Inspiralis on streptavidin-coated 96-well microtiter plates from Thermo scientific Pierce. […] After washing off the unbound oligonucleotide, the enzyme test was performed. […] After that, the TF buffer (50 mM NaOAc with pH 5.0, 50 mM NaCl and 50 mM MgCl2) was added to terminate the enzymatic reaction. After additional incubation for 30 min at rt, during which biotin-oligonucleotide-plasmid triplex was 19 formed, the unbound plasmid was washed off using TF buffer and SybrGOLD in T10 buffer (10 mM Tris HCl with pH 8.0 and 1 mM EDTA) was added. […] Initial screening was done at 100 or 10 μM concentration of inhibitors. […] GraphPad Prism software was used to calculate the IC50 values. The result is given as the average value of three independent measurements. […] Determination of inhibitory activities on E. coli and S. aureus Topoisomerase IV IC50 values were determined in an assay from Inspiralis on streptavidin-coated 96-well microtiter plates from Thermo scientific Pierce. […] After washing off the unbound oligonucleotide, the enzyme test was performed. The reaction volume of 30 μL in buffer (40 mM HEPES KOH with pH 7.6, 100 mM potassium glutamate, 10 mM magnesium acetate, 10 mM DTT, 1 mM ATP, 0.05 mg/mL albumin) contained 1.5 U of topoisomerase IV from E. coli or S. aureus, 0.75 μg of pNO1 supercoiled plasmid, and 3 μL solution of the inhibitor in DMSO (10%) and Tween 20 (0.008%). […] After additional incubation for 30 min at rt, during which triplex (biotin-oligonucleotide-plasmid) was formed, the unbound plasmid was washed off using TF buffer and SybrGOLD in T10 buffer (10 mM Tris HCl with pH 8.0 and 1 mM EDTA) was added. […] Initial screening was done at 100 or 10 μM concentration of inhibitors. […] GraphPad Prism software was used to calculate the IC50 values. The result is given as the average value of three independent measurements.

E. coli topoisomerase IV = molecular target: T2, E. coli topoisomerase IV (Escherichia coli, UniProt P0AFI2+P20083); experiment: E. coli topoisomerase IV assay; type: biochemical
T2 construct: purchased Inspiralis
T2 sequence (P0AFI2 whole entry): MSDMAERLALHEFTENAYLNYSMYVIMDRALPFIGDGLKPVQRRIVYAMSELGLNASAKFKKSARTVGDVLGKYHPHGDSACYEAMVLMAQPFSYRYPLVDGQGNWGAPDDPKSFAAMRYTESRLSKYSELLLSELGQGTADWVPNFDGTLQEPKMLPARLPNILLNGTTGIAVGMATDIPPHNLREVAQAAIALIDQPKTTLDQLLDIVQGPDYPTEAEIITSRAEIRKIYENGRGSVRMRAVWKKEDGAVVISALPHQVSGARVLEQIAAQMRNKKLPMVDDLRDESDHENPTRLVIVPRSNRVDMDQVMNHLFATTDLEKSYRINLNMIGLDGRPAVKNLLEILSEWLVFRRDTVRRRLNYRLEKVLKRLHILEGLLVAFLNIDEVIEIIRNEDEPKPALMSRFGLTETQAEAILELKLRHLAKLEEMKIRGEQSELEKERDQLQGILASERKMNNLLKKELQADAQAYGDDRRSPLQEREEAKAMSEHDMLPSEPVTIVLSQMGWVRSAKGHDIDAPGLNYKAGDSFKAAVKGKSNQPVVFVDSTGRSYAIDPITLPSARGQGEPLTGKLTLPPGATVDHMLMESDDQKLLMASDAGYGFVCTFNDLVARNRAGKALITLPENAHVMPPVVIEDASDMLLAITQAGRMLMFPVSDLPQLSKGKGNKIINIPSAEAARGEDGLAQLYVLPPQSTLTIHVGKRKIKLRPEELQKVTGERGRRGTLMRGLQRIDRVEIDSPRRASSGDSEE
T2 sequence (P20083 whole entry): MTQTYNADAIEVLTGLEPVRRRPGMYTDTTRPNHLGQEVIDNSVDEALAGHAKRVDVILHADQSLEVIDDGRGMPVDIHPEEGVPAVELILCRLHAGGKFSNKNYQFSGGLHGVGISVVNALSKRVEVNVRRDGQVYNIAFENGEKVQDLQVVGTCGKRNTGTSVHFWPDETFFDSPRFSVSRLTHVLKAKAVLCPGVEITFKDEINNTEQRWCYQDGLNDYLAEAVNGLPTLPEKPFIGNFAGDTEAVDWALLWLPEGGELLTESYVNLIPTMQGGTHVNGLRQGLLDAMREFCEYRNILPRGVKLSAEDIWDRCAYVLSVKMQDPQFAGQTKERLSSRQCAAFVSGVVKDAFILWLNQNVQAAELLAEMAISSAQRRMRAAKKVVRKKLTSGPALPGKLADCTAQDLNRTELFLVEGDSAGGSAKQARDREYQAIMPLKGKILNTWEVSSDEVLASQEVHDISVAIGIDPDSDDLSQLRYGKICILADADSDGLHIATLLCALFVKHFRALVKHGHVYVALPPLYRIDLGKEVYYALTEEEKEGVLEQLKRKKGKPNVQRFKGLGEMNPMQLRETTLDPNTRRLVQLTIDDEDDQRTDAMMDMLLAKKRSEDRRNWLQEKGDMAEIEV
Protocol: as §4, §5

SMILES | melting point [°C] | MIC (E. coli) [µg/mL] | MIC (B. subtilis) [µg/mL] | MIC (P. aeruginosa) [µg/mL] | MIC (S. aureus) [µg/mL] | other results
O=C(O)c1cn(C2CC2)c2cc(N3CCNCC3)c(F)cc2c1=O [Ciprofloxacin] |  | 0.06 (≈ 0.181 µM) | 0.01 (≈ 0.0302 µM) | 0.06 (≈ 0.181 µM) | 0.03 (≈ 0.0905 µM) | MIC, S. aureus (S. aureus): 0.03 µg/mL (≈ 0.0905 µM)
O=C(O)c1cn(C2CC2)c2cc(N3CCN(Cn4nc(-c5ccncc5)oc4=S)CC3)c(F)cc2c1=O [Compound 6, 1-Cyclopropyl-6-fluoro-4-oxo-7-[4-(5-pyridin-4-yl-2-thioxo-[1,3,4]oxadiazol-3-yl-methyl)-piperazin-1-yl]-1,4-dihydro-quinoline-3-carboxylic acid] |  | 0.125 (≈ 0.239 µM) | 0.125 (≈ 0.239 µM) | 0.125 (≈ 0.239 µM) | 0.031 (≈ 0.0593 µM) | viability at 4 days [1]: 87%; antibacterial activity relative to ciprofloxacin, S. aureus [2]: 120%; IC50 (E. coli DNA gyrase): 0.18 ± 0.02 µM; IC50 (E. coli topoisomerase IV): 8.92 ± 0.2 µM
O=C(O)c1cn(C2CC2)c2cc(N3CCN(Cn4nc(-c5cccnc5)n(-c5ccccc5)c4=S)CC3)c(F)cc2c1=O [Compound 11, 1-Cyclopropyl-6-fluoro-4-oxo-7-[4-(4-phenyl-3-pyridin-3-yl-5-thioxo-4,5-dihydro-[1,2,4]triazol-1-ylmethyl)-piperazin-1-yl]-1,4-dihydro-quinoline-3-carboxylic acid] | 280 |  |  |  |  | 

The next lines start with results.

melting point [°C] | SMILES | MIC (E. coli) [µg/mL] | MIC (B. subtilis) [µg/mL] | MIC (P. aeruginosa) [µg/mL] | MIC (S. aureus) [µg/mL] | other results
241 | O=C(O)c1cn(C2CC2)c2cc(N3CCN(CN4C(=O)c5ccccc5C4=O)CC3)c(F)cc2c1=O [Compound 20, 1-Cyclopropyl-7-[4-(1,3-dioxo-1,3-dihydro-isoindol-2-ylmethyl)-piperazin-1-yl]-6-fluoro-4-oxo-1,4-dihydro-quinoline-3-carboxylic acid] |  |  |  |  | 
214 | O=C(O)c1cn(C2CC2)c2cc(N3CCN(CN4C(=O)CCC4=O)CC3)c(F)cc2c1=O [Compound 21, 1-Cyclopropyl-7-[4-(2,5-dioxo-pyrrolidin-1-ylmethyl)-piperazin-1-yl]-6-fluoro-4-oxo-1,4-dihydro-quinoline-3-carboxylic acid] |  |  |  |  | 

Reference: publication PMC8145110, “Design, Synthesis, and Antibacterial Screening of Some Novel Heteroaryl-Based Ciprofloxacin Derivatives as DNA Gyrase and Topoisomerase IV Inhibitors” (Pharmaceuticals, 2021)
